Assay results reported in patent US20260042753A1 (Merck Patent GmbH, priority 2019, published 2026).
Like-named read-outs stand apart in the source and are kept apart here.

What was measured:
[1] = target: mutant cKIT (560-576 and V654A) in GIST430/654 cell line (Homo sapiens (Human), UniProt P10721, DEL560-576/V654A); assay: Cellular testing of cKIT mutant inhibitors: phospho-Y307-cKIT Luminex assay in GIST430/654 cells; type: cell-based; settings: read-out: GIST 430/654 IC50
Outline: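 GIST430/654 cells carrying constitutively active cKIT (Δ560-576/V654A) were grown with 100 nM imatinib, then treated with serially diluted compound for 45 min. Lysates were captured on anti-total-cKIT Luminex beads overnight at 4 °C and probed for phospho-Y307-cKIT. IC50 was fitted from percent of 0.3% DMSO control.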

c-Kit(V654A) = c-Kit(V654A) (Homo sapiens, UniProt P10721, V654A); assay: c-Kit(V654A) assay; type: biochemical
Outline: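 Radiometric filter-binding read-out: after 3% phosphoric acid stop, peptide-incorporated 33P on filtermat scintillation-counted. Enzyme: human c-Kit V654A, residues 544–end, N-terminal GST fusion.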

[2] = Table 1, cKIT autophosphorylation, compounds 45 min
[3] = Table 2, corresponding triazole derivatives

Sequence of mutant cKIT (560-576 and V654A) in GIST430/654 cell line (P10721 other isoform, or with tags, fused parts or gaps V654A/del 1-25/del 560-576 limits assumed): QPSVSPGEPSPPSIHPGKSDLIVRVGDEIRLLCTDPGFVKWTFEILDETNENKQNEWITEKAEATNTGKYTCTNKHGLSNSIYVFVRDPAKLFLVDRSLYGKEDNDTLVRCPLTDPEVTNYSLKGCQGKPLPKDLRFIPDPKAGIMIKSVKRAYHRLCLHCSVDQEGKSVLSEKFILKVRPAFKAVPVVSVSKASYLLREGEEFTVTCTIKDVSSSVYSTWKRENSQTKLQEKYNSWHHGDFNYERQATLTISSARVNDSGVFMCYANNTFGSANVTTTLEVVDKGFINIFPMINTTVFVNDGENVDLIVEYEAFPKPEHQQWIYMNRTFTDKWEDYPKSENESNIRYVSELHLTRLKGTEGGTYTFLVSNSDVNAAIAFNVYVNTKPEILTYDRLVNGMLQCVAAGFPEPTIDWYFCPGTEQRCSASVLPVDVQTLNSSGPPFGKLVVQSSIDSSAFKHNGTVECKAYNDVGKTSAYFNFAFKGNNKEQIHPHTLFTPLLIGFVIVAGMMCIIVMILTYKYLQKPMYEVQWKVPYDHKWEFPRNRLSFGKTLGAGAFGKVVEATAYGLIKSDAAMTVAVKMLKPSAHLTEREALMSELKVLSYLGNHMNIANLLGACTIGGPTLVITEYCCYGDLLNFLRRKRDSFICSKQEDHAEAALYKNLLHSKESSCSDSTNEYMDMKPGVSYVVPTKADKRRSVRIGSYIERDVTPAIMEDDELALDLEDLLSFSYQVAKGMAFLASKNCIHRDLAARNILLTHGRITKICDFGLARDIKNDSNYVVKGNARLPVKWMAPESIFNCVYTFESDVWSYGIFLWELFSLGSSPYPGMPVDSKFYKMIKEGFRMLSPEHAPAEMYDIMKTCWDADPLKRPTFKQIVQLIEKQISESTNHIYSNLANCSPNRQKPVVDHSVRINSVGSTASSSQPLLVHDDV

IC50 [1, 2] [nM] | IC50 (c-Kit(V654A); Table 1, 200 μM ATP) [nM] | IC50 [1, 3] [nM] | IC50 (c-Kit(V654A); [3]) [nM] | SMILES
140 | 2.7 |  |  | COCCOc1cc2[nH]nc(-c3cc(-c4ccc(OCCN5CCOCC5)cc4)no3)c2cc1F [A40, 5-fluoro-6-(2-methoxyethoxy)-3-(3-{4-[2-(morpholin-4-yl)ethoxy]phenyl}-1,2-oxazol-5-yl)-1H-indazole]
4400 | 35 |  |  | CCOc1ccc(-c2cc(-c3n[nH]c4cc(OCCOC)c(F)cc34)on2)cn1 [A38, 3-[3-(6-ethoxypyridin-3-yl)-1,2-oxazol-5-yl]-5-fluoro-6-(2-methoxyethoxy)-1H-indazole]
320 | 0.57 |  |  | COCCOc1cc2[nH]nc(-c3cc(-c4ccc(C(=O)N5CC[C@H]6CNC(=O)[C@H]65)cc4)no3)c2cc1F (relative stereo) [A89, (cis)-1-(4-{5-[5-fluoro-6-(2-methoxyethoxy)-1H-indazol-3-yl]-1,2-oxazol-3-yl}benzoyl)-octahydropyrrolo[3,4-b]pyrrol-6-one]
120 | 0.83 |  |  | COCCOc1cc2[nH]nc(-c3cc(-c4ccc(C(=O)N5CC(C)(O)C5)cc4)no3)c2cc1F [A34, 1-(4-{5-[5-fluoro-6-(2-methoxyethoxy)-1H-indazol-3-yl]-1,2-oxazol-3-yl}benzoyl)-3-methylazetidin-3-ol]
38 | 0.54 |  |  | COCCOc1cc2[nH]nc(-c3cc(-c4ccc(C(=O)N5C[C@H]6C[C@@H]5CO6)cc4)no3)c2cc1F [A163, 5-fluoro-6-(2-methoxyethoxy)-3-(3-{4-[(1R,4R)-2-oxa-5-azabicyclo[2.2.1]heptane-5-carbonyl]phenyl}-1,2-oxazol-5-yl)-1H-indazole]
 |  | 910 | 8.5 | COCCOc1cc2[nH]nc(-c3cc(-c4ccc(C(=O)N5CCC[C@H]5CO)cc4)no3)c2cc1F [drawing 57, reference compound]
41 | 0.97 |  |  | COCCOc1cc2[nH]nc(-c3cc(-c4ccc(C(=O)N5CC[C@@H]5CO)cc4)no3)c2cc1F [A97, [(2R)-1-(4-{5-[5-fluoro-6-(2-methoxyethoxy)-1H-indazol-3-yl]-1,2-oxazol-3-yl}benzoyl)azetidin-2-yl]methanol]
350 | 5.2 |  |  | COCCOc1cc2[nH]nc(-c3cc(-c4ccc(C(=O)NCc5nc6ccccc6[nH]5)cc4)no3)c2cc1F [A156, N-[(1H-1,3-benzodiazol-2-yl)methyl]-4-{5-[5-fluoro-6-(2-methoxyethoxy)-1H-indazol-3-yl]-1,2-oxazol-3-yl}benzamide]
350 | 15 |  |  | CC(C)(O)C1CCCN1C(=O)c1ccc(-c2cc(-c3n[nH]c4cc(C(F)(F)F)ccc34)on2)cc1 (stereo not shown) [A1, 2-[1-(4-{5-[6-(trifluoromethyl)-1H-indazol-3-yl]-1,2-oxazol-3-yl}benzoyl)pyrrolidin-2-yl]propan-2-ol]
 |  | 230 | 4.3 | COCCOc1cc2[nH]nc(-c3cn(-c4ccc(C(=O)N5CCOC[C@H]5C)cc4)nn3)c2cc1F [reference compound]
420 | 9.8 |  |  | COCCOc1cc2[nH]nc(-c3cc(-c4ccc(C(=O)N5CC(N6CCOCC6)C5)cn4)no3)c2cc1F [A82, 5-fluoro-6-(2-methoxyethoxy)-3-(3-{5-[3-(morpholin-4-yl)azetidine-1-carbonyl]pyridin-2-yl}-1,2-oxazol-5-yl)-1H-indazole]
41 | 0.59 |  |  | COCCOc1cc2[nH]nc(-c3cc(-c4ccc(C(=O)N5CC(c6cncnc6)C5)cc4)no3)c2cc1F [A212, 5-fluoro-6-(2-methoxyethoxy)-3-(3-{4-[3-(pyrimidin-5-yl)azetidine-1-carbonyl]phenyl}-1,2-oxazol-5-yl)-1H-indazole]
79 | 2 |  |  | COCCOc1cc2[nH]nc(-c3cc(-c4ccc(N5CCN(C)CC5)cc4)no3)c2cc1F [A37, 5-fluoro-6-(2-methoxyethoxy)-3-{3-[4-(4-methylpiperazin-1-yl)phenyl]-1,2-oxazol-5-yl}-1H-indazole]
240 | 5.8 |  |  | COCCOc1cc2[nH]nc(-c3cc(-c4ccc(S(C)(=O)=O)cc4)no3)c2cc1Cl [A15, 5-chloro-3-[3-(4-methanesulfonylphenyl)-1,2-oxazol-5-yl]-6-(2-methoxyethoxy)-1H-indazole]
320 | 2.6 |  |  | COCCOc1cc2[nH]nc(-c3cc(-c4ccc(C(=O)NCCN(C)C)cc4)no3)c2cc1F [A72, N-[2-(dimethylamino)ethyl]-4-{5-[5-fluoro-6-(2-methoxyethoxy)-1H-indazol-3-yl]-1,2-oxazol-3-yl}benzamide]
81 | 2.1 |  |  | COCCOc1cc2[nH]nc(-c3cc(-c4ccc(C(=O)N5C[C@H]6COC[C@H]6C5)c(C)c4)no3)c2cc1F [A70, (4-{5-[5-fluoro-6-(2-methoxy-ethoxy)-1H-indazol-3-yl]-isoxazol-3-yl}-2-methyl-phenyl)-(cis)-tetrahydro-furo[3,4-c]pyrrol-5-yl-methanone]
75 | 0.74 |  |  | COCCOc1cc2[nH]nc(-c3cc(-c4ccc(C(=O)N5Cc6cn[nH]c6C5)cc4)no3)c2cc1F [A208, 5-fluoro-6-(2-methoxyethoxy)-3-[3-(4-{1H,4H,5H,6H-pyrrolo[3,4-c]pyrazole-5-carbonyl}phenyl)-1,2-oxazol-5-yl]-1H-indazole]
290 | 7.2 |  |  | COCCOc1cc2[nH]nc(-c3cc(-c4ccc(C(=O)N(C)C)cn4)no3)c2cc1F [A91, 6-{5-[5-fluoro-6-(2-methoxyethoxy)-1H-indazol-3-yl]-1,2-oxazol-3-yl}-N,N-dimethylpyridine-3-carboxamide]
46 | 1.6 |  |  | COCCOc1cc2[nH]nc(-c3cc(-c4ccc(N5CC[S+]([O-])CC5)nc4)no3)c2cc1F [A140, 4-(5-{5-[5-fluoro-6-(2-methoxyethoxy)-1H-indazol-3-yl]-1,2-oxazol-3-yl}pyridin-2-yl)-1lambda4-thiomorpholin-1-one]
39 | 2 |  |  | COCCOc1cc2[nH]nc(-c3cc(-c4ccc(C(=O)N5CC(C#N)C5)cc4)no3)c2cc1F [A28, 1-(4-{5-[5-fluoro-6-(2-methoxyethoxy)-1H-indazol-3-yl]-1,2-oxazol-3-yl}benzoyl)azetidine-3-carbonitrile]
19 | 1.3 |  |  | COCCOc1cc2[nH]nc(-c3cc(-c4ccc(C(=O)N5CC(N6CCOC[C@@H]6C)C5)cc4)no3)c2cc1F [A200, 5-fluoro-6-(2-methoxyethoxy)-3-[3-(4-{3-[(3S)-3-methylmorpholin-4-yl]azetidine-1-carbonyl}phenyl)-1,2-oxazol-5-yl]-1H-indazole]
47 | 1 |  |  | COCCOc1cc2[nH]nc(-c3cc(-c4ccc(C(=O)N5CC6(CCOC6)C5)cc4)no3)c2cc1F [A77, 5-fluoro-6-(2-methoxyethoxy)-3-[3-(4-{6-oxa-2-azaspiro[3.4]octane-2-carbonyl}phenyl)-1,2-oxazol-5-yl]-1H-indazole]
42 | 0.6 |  |  | COCCOc1cc2[nH]nc(-c3cc(-c4ccc(C(=O)N5CCS(=O)(=O)CC5C)cc4)no3)c2cc1F (stereo not shown) [A121, 4-(4-{5-[5-fluoro-6-(2-methoxyethoxy)-1H-indazol-3-yl]-1,2-oxazol-3-yl}benzoyl)-3-methyl-1lambda6-thiomorpholine-1,1-dione]
